Results published in US20180028480A1, “METHODS OF REDUCING OR PREVENTING OXIDATIVE MODIFICATION OF MEMBRANE POLYUNSATURATED FATTY ACIDS” (Amarin Pharmaceuticals Ireland Limited, priority 2015, published 2018).

Columns and labels:
[1] = tested on: Human umbilical vein endothelial cells (HUVECs); assay: Nitric oxide release from HUVECs incubated with pretreated oxidized sdLDL (Example 7); type: cell-based; conditions: oxidized sdLDL pretreated at 10.0 μM
Procedure: All samples, with the exception of non-oxidized sdLDL controls, were subjected to copper-induced oxidation for 1 hour. Human umbilical vein endothelial cells (HUVECs) were incubated with the various sdLDL samples, stimulated with calcium, and monitored for nitric oxide (NO) and peroxynitrite (ONOO^-) release using nanosensor technology.

[2] = X-ray diffraction of cholesterol-enriched POPC membranes without oxidative conditions (Example 8); conditions: 5 mol %, 50 mol % cholesterol, 15° C., 20° C.
Procedure: Values are mean±S.D. (N=3).
FIGS. 18A-18C show representative x-ray diffraction patterns collected from cholesterol-enriched model membranes treated with vehicle (control), eicosapentaenoic acid (EPA), or docosahexaenoic acid (DHA) and examined at 15° C., 20° C., and 30° C. Membranes were reconstituted from POPC and cholesterol at 50 mol % cholesterol and treated with each of the various agents at 5 mol % (to match treatments used in corresponding lipid dynamics experiments). Each sample was maintained at 74% relative humidity by exposing the samples to a saturated solution of L-(+) tartaric acid. […] DHA, but not EPA or vehicle, induced the formation of cholesterol domains, which are indicated by a distinct set of diffraction peaks (shaded peaks) having a characteristic d-space value of 34 Å and shown to be stable over a broad range of temperatures.
Multilamellar vesicles (MLVs) were prepared as binary mixtures of POPC and cholesterol at 50 mol %. MLVs with DLPC and cholesterol at cholesterol-to-phospholipid (C/P) mole ratios of 0.1:1 to 1.1:1 were also prepared in a similar manner. Component lipids (in chloroform) were transferred to borosilicate culture tubes and combined with vehicle (ethanol) or an equal volume of EPA, DHA, fenofibrate, niacin or gemfibrozil stock solution(s) and adjusted to achieve a drug-to-phospholipid (D/P) mole ratio of 1:30. Membranes reconstituted from POPC and cholesterol (at 50 mol % cholesterol) were treated with each of the various agents at 5 mol %. Samples were then shell-dried under nitrogen gas and placed under vacuum for 3 hours to remove residual solvent.
Membrane samples were oriented for x-ray diffraction analysis as described in Mason, et al., J. Biol. Chem., vol. 281, pages 9337-45 (2006). Briefly, 100 μL aliquots of each MLV preparation (containing 250 μg of phospholipid) were transferred to Lucite sedimentation cells fitted with a removable aluminum foil substrate designed to collect MLVs into a single membrane pellet upon centrifugation. […]

[3] = LOOH formation in glucose-treated model membranes, EPA versus EA and ETE (Example 5); type: biochemical; conditions: FIG. 8
Procedure: An experiment was conducted to compare the ability of EPA to prevent lipid hydroperoxide formation in model membranes treated with glucose to two other 20-carbon fatty acids: eicosanoic acid (“EA,” also referred to as arachidic acid, C20:0) and eicosatrienoic acid (“ETE,” C20:3, n-3). All MLV samples were subjected to time-dependent autoxidation by incubating at 37° C. in an uncovered, shaking water bath. This method allows lipid peroxidation to occur gradually without requiring the use of exogenous initiators. Small aliquots (5-100 μL) of each sample were removed, immediately following MLV preparation (0 hr) and after exposing samples to oxidative conditions for 72 or 96 hr, and combined with 1.0 mL of activated CHOD-iodide color reagent. Aliquot volume was reduced with each successive time point to ensure that spectrophotometric readings were within the optimal adsorption range. Test samples were covered and incubated in darkness at room temperature for at least 4 hr. Sample absorbances were then measured against a CHOD blank at 365 nm using a Beckman DU-640 spectrophotometer. The CHOD colorimetric assay is based on the oxidation of iodide (I^−) by lipid hydroperoxide (LOOH) to form triiodide (I3^−), the quantity of which is directly proportional to the amount of LOOH present in the lipid sample. The molar absorptivity (ε) of I3^− is 2.46×10^4 M^−1 cm^−1 at 365 nm.

[4] = Fluorescence anisotropy, DPH apparent rotational correlation time (Example 8); conditions: POPC, 0 or 50 mol % cholesterol; increasing omega-3 fatty acid concentrations (FIGS. 16A-16B)
Source text: FIGS. 16A-16B show the dose-dependent effects of EPA and DHA on the ARCT measured for DPH in POPC membranes prepared at either 0 or 50 mol % cholesterol. †p=0.0331 versus cognate DHA treatment (5 mol % omega-3 fatty acids (O3FA), no cholesterol); ^§p=0.0016 versus cognate DHA treatment (5 mol % O3FA, 50 mol % cholesterol); ^‡p=0.0032 versus cognate DHA treatment (10 mol % O3FA, 50 mol % cholesterol) (unpaired, two-tailed Student's t-test). Values are mean±S.D. (N=3).
Fluorescence anisotropy experiments were conducted using large unilamellar vesicles (LUVs) of 100 nm diameter of either POPC (or POPC/cholesterol) containing increasing concentrations of EPA or DHA and 1 mol % DPH fluorescent. Briefly, 640 nmol of total lipid (phospholipid and sterol) and 6.4 nmol of fluorescent probe was mixed well and dried under a stream of nitrogen while being warmed gently at 35° C. […]
In order to ensure that the anisotropy values measured for DPH are not influenced by lifetime-induced artifacts, the apparent (average) rotational correlation times (ARCT) were calculated using Perrin's equation: […]
where r0 is the limiting anisotropy of DPH, r is the steady state anisotropy, and is the mean fluorescence lifetime.

## CC/C=C\C/C=C\C/C=C\C/C=C\C/C=C\CCCC(=O)O [EPA, cis-5,8,11,14,17-Eicosapentaenoic acid]
[1]
  increase of NO release as compared to non-oxidized sdLDL treatment: 23%
  increase of NO release as compared to oxidized LDL treatment: 53%
[2]; 30° C. (FIG. 17)
  membrane width (d-space) compared to DHA or vehicle: increased the width (d-space)
[2]; 30° C. (FIG. 18)
  membrane cholesterol domain formation: did not induce cholesterol domain formation
[3]
  LOOH formation compared to vehicle, glucose, glucose and EA, glucose and ETE: significantly less LOOH formation
[4]
  DPH apparent rotational correlation time / membrane fluidity: did not alter membrane fluidity
